This is an account of results in patent US5348969A, “Diphenyloxazolyl-oxazoles as platelet aggregation inhibitors” (Bristol-Myers Squibb Company, priority 1992, dated 1994).

As usually defined, the IC50 is the concentration needed to halve the response being measured. One may read the inhibition as the change of the read-out against control, counted positive when it falls.

SMILES strings stand for the structures. ≈ marks a conversion by molar mass, not a printed value.

In test [1] the test system is ADP-induced aggregation of human blood platelets in platelet-rich-plasma. The test can be described thus: In vitro inhibition of ADP-induced human platelet aggregation (aggregometer method, PRP). It counts as cell-based. The following applies: for IC50 / inhibition at 32 µg/mL: Homo sapiens, Platelet; for IC50: read-out: IC50 (human PRP vs ADP), human PRP, incubated at about 37° C. for about 3 minutes prior to ADP; for IC50 (human PRP vs ADP): incubated at about 37° C. for about 3 minutes prior to ADP; for inhibition at 32 µg/mL: read-out: percentage in brackets beside the IC50 entry 32 (inhibition of ADP-induced aggregation). The protocol:
The aggregometer method of Born, G. V. R., J. Physiol., (London), 162, 67-68, (1962) as modified by Mustard, J. F., et al., J. Lab. Clin. Med., 64, 548-599, (1964) was used to assess the in vitro activity of the various compounds as to the inhibition of adenosine diphosphate (ADP) and collagen-induced platelet aggregation. The human volunteer donor's arm is cleansed with 70% ethyl alcohol. A sterile 20 ml syringe and needle are used to withdraw 20 ml of blood. The blood is immediately added to a test tube containing 3.8% sodium citrate to prevent clotting (1 part citrate to 9 parts blood).
Platelet rich plasma (PRP) was separated by centrifugation for 10 minutes at 1000 rpm (140×g) from citrated (3.8%) human blood. All glassware used for preparation of PRP is silicon treated. ADP in final concentration of 0.5 mcg/mL or 0.05 mL of a collagen suspension prepared according to the method described by Evans, G., et al., J. Exp. Med., 128, 877-894, (1968) was used to induce aggregation. The various compounds tested were dissolved in dimethylsulfoxide (DMSO) so that 5 mcl added to the platelet rich plasma would yield the desired test concentration. Vehicle control trials were done and compared with aggregation induced in platelet rich plasma containing various concentrations of the test compounds. Dose response curves were obtained and Inhibitor Concentration (IC50) values calculated.
The target compounds were evaluated as inhibitors of ADP-induced aggregation of human blood platelet in platelet-rich-plasma (PRP) in vitro. The test compounds were incubated at about 37° C. in PRP for about 3 minutes prior to the addition of sufficient ADP to provide final ADP concentration of […].

The test system of test [2] is platelet aggregation (human PRP vs ADP). The following applies: U.S. Pat. No. 4,460,598 / Drugs of the Future 11, 26 (1986), cited from earlier work.

Consider `COC(=O)COc1cccc(-c2oc(C)nc2-c2nc(-c3ccccc3)c(-c3ccccc3)o2)c1` [Compound 23, Methyl[3-[4-(4,5-diphenyl-2-oxazolyl)-2-methyl-5-oxazolyl]phenoxy]acetate], for which the IC50 in test [1] is 0.13 µg/mL (≈ 0.279 µM).

As to `O=C(O)COc1cccc(-c2ncoc2-c2nc(-c3ccccc3)c(-c3ccccc3)o2)c1` [Compound 5], the half-inhibitory concentration (IC50) in test [1] was 0.07 µg/mL (≈ 0.16 µM).

For `O=C(O)COc1cccc(-c2ccccc2-c2nc(-c3ccccc3)c(-c3ccccc3)o2)c1` [Compound 7, [2'-(4,5-Diphenyl-2-oxazolyl)-[1,1'-biphenyl]-3-yloxy]acetic acid], the IC50 in test [1] was found to be 5 µg/mL (≈ 11.2 µM).

As for `COC(=O)COc1cccc([C@@H]2OC(C)=N[C@H]2c2nc(-c3ccccc3)c(-c3ccccc3)o2)c1` (relative stereo) [Compound 39, Methyl[3-[4-(4,5-diphenyl-2-oxazolyl)-4,5-dihydro-2-methyl-5-oxazolyl]phenoxy]acetate], the 50% inhibitory concentration (IC50) in test [1] is 0.65 µg/mL (≈ 1.39 µM).

`Cn1cc(-c2nc(-c3ccccc3)c(-c3ccccc3)o2)c(-c2cccc(OCC(=O)O)c2)n1` [Compound 12]: the half-inhibitory concentration (IC50) in test [1] was 0.3 µg/mL (≈ 0.664 µM).

For `O=C(O)COc1cccc(C2OC(=O)NC2c2nc(-c3ccccc3)c(-c3ccccc3)o2)c1` (centres unmarked) [Compound 44, [3-[4-(4,5-Diphenyl-2-oxazolyl)-2-oxo-5-oxazolidinyl]phenoxy]acetic acid], the “IC50 (human PRP vs ADP)” value in test [1] was 1 µg/mL (≈ 2.19 µM).

For `COC(=O)COc1cccc(C(O)C(NC=O)c2nc(-c3ccccc3)c(-c3ccccc3)o2)c1` (centres unmarked) [Compound 33, Methyl[3-[2-(4,5-diphenyl-2-oxazolyl)-2-(formylamino)-1-hydroxy-ethyl]phenoxy]acetate], the half-maximal inhibitory concentration (IC50) in test [1] came to 10 µg/mL (≈ 21.2 µM).

Regarding `O=C(O)COc1cccc(-c2oc(-c3ccccc3)nc2-c2nc(-c3ccccc3)c(-c3ccccc3)o2)c1` [Compound 26, [3-[4-(4,5-Diphenyl-2-oxazolyl)-2-phenyl-5-oxazolyl]phenoxy]acetic acid], in test [1], the IC50 turned out to be 32 µg/mL (≈ 62.2 µM).

In the case of `COC(=O)COc1cccc([C@@H]2OC=N[C@H]2c2nc(-c3ccccc3)c(-c3ccccc3)o2)c1` (relative stereo) [Compound 31, Methyl[3-[4-(4,5-diphenyl-2-oxazolyl)-4,5-dihydro-5-oxazolyl]phenoxy]acetate], in test [1], the IC50 stood at 0.08 µg/mL (≈ 0.176 µM).

On to `O=C(O)CCCCCCCOc1nc(-c2ccccc2)c(-c2ccccc2)n1-c1ccccc1` [Octimibate], for which the “inhibition of platelet aggregation, in words” value in test [2] is “broad spectrum inhibitor of platelet aggregation”. Besides, in test [2] (human PRP vs ADP), the “IC50 (human PRP vs ADP)” value is 1 µg/mL (≈ 2.2 µM).

`Cc1nc(-c2nc(-c3ccccc3)c(-c3ccccc3)o2)c(-c2cccc(OCC(=O)O)c2)o1` [Compound 24]: the concentration for half-maximal inhibition (IC50) in test [1] is 0.02 µg/mL (≈ 0.0442 µM).

Consider `COC(=O)COc1cccc(-c2nn(C)cc2-c2nc(-c3ccccc3)c(-c3ccccc3)o2)c1` [Compound 11, Methyl[3-[4-(4,5-diphenyl-2-oxazoly)-1-methyl-3-pyrazolyl]phenoxy]acetate], for which the half-inhibitory concentration (IC50) in test [1] worked out at 1.12 µg/mL (≈ 2.41 µM).

Consider `COC(=O)COc1cccc(-c2ncoc2-c2nc(-c3ccccc3)c(-c3ccccc3)o2)c1` [Compound 4], for which, in test [1], the IC50 was found to be 0.174 µg/mL (≈ 0.385 µM).

Regarding `COC(=O)COc1cccc(-c2[nH]ncc2-c2nc(-c3ccccc3)c(-c3ccccc3)o2)c1` [Compound 15, Methyl[3-[4-(4,5-diphenyl-2-oxazolyl)-5-pyrazolyl]phenoxy]acetate], the concentration for half-maximal inhibition (IC50) in test [1] was 0.07 µg/mL (≈ 0.155 µM).

Regarding `COC(=O)COc1cccc(-c2c(-c3nc(-c4ccccc4)c(-c4ccccc4)o3)cnn2C)c1` [Compound 13, Methyl[3-[4-(4,5-diphenyl-2-oxazolyl)-1-methyl-5-pyrazolyl]phenoxy]acetate], the IC50 in test [1] came to 0.75 µg/mL (≈ 1.61 µM).

As to `COC(=O)COc1cccc(-c2ccccc2-c2nc(-c3ccccc3)c(-c3ccccc3)o2)c1` [Compound 6, Methyl[2'-(4,5-diphenyl-2-oxazolyl)-[1,1'-biphenyl]-3-yloxy]acetate], in test [1], the 50% inhibitory concentration (IC50) was 32 µg/mL (≈ 69.3 µM) and the inhibition at 32 µg/mL amounted to 34%.

`COC(=O)COc1cccc(C2OC(=O)NC2c2nc(-c3ccccc3)c(-c3ccccc3)o2)c1` (centres unmarked) [Compound 43, Methyl[3-[4-(4,5-diphenyl-2-oxazolyl)-2-oxo-5-oxazolidinyl]phenoxy]acetate]: the half-inhibitory concentration (IC50) in test [1] came to 5 µg/mL (≈ 10.6 µM).

Turning to `Cn1ncc(-c2nc(-c3ccccc3)c(-c3ccccc3)o2)c1-c1cccc(OCC(=O)O)c1` [Compound 14], in test [1], the 50% inhibitory concentration (IC50) turned out to be 0.5 µg/mL (≈ 1.11 µM).

Take `COC(=O)COc1cccc(C(O)C(N)c2nc(-c3ccccc3)c(-c3ccccc3)o2)c1` (centres unmarked) [Compound 38, Methyl[3-[2-(4,5-diphenyl-2-oxazolyl)-2-amino-1-hydroxyethyl]phenoxy]acetate]: the half-maximal inhibitory concentration (IC50) in test [1] turned out to be 2.8 µg/mL (≈ 6.3 µM).

For `COC(=O)COc1cccc([C@@H]2OC(c3ccccc3)=N[C@H]2c2nc(-c3ccccc3)c(-c3ccccc3)o2)c1` (relative stereo) [Compound 40, Methyl[3-[4-(4,5-diphenyl-2-oxazolyl)-4,5-dihydro-2-phenyl-5-oxazolyl]phenoxy]acetate], in test [1], the IC50 stood at 10 µg/mL (≈ 18.8 µM).

As to `NC(c1nc(-c2ccccc2)c(-c2ccccc2)o1)C(O)c1cccc(OCC(=O)O)c1` (centres unmarked) [Compound 37], in test [1], the “IC50 (human PRP vs ADP)” value came to 0.9 µg/mL (≈ 2.09 µM).

Take `COC(=O)COc1cccc(-c2oc(-c3ccccc3)nc2-c2nc(-c3ccccc3)c(-c3ccccc3)o2)c1` [Compound 25, Methyl[3-[4-(4,5-diphenyl-2-oxazolyl) -2-phenyl-5-oxazolyl]phenoxy]acetate]: in test [1], the IC50 is 32 µg/mL (≈ 60.5 µM) and the inhibition at 32 µg/mL came out at 6%.

Consider `COC(=O)COc1cccc([C@H]2OC(C)=N[C@H]2c2nc(-c3ccccc3)c(-c3ccccc3)o2)c1` (relative stereo) [Compound 41, Methyl[3-[4-(4,5-diphenyl-2-oxazolyl)-4,5-dihydro-2-methyl-5-oxazolyl]phenoxy]acetate], for which the IC50 in test [1] worked out at 27 µg/mL (≈ 57.6 µM).

Take `O=CNC(c1nc(-c2ccccc2)c(-c2ccccc2)o1)C(O)c1cccc(OCC(=O)O)c1` (centres unmarked) [Compound 36]: the IC50 in test [1] came to 6.5 µg/mL (≈ 14.2 µM).

`O=C(O)COc1cccc(-c2[nH]ncc2-c2nc(-c3ccccc3)c(-c3ccccc3)o2)c1` [Compound 16, [3-[4-(4,5-Diphenyl-2-oxazolyl)-5-pyrazolyl]phenoxy]acetic acid]: the IC50 in test [1] is 0.08 µg/mL (≈ 0.183 µM).

Regarding `COC(=O)COc1cccc([C@H]2OC(c3ccccc3)=N[C@H]2c2nc(-c3ccccc3)c(-c3ccccc3)o2)c1` (relative stereo) [Compound 42, Methyl[3-[4-(4,5-diphenyl-2-oxazolyl)-4,5-dihydro-2-phenyl-5-oxazolyl]phenoxy]acetate], in test [1], the IC50 came to 32 µg/mL (≈ 60.3 µM) and the inhibition at 32 µg/mL was 15%.

Regarding `O=C(O)COc1cccc(C2OC(=O)NC2c2nc(-c3ccccc3)c(-c3ccccc3)o2)c1` (centres unmarked) [Compound 45, [3-[4-(4,5-Diphenyl-2-oxazolyl)-2-oxo-5-oxazolidinyl]phenoxy]acetic acid], in test [1], the inhibition at 32 µg/mL was found to be 8% and the “IC50 (human PRP vs ADP)” value came out at 32 µg/mL (≈ 70.1 µM).
